Reference: patent US6926763B2, “Purine and isosteric antibacterial compounds” (GLSynthesis, Inc., priority 2002, dated 2005)
In brackets after ≈: the same amount, converted by molar mass. Like-named read-outs stand apart in the source and are kept apart here.

Key:
B.s. pol IIIC = B.s. pol IIIC (Bacillus subtilis, UniProt P13267); assay: biochemical; format: biochemical
Method: (§1) The ability of a test compound to inhibit the activity of DNA pol IIIC or pol IIIE enzymes can be tested by using a DNA polymerase assay as described, for example, in Barnes and Brown, Nucl. […] This rapid screening method can use natural or recombinant DNA pol III enzymes in a standard DNA polymerase activity assay. By including a test compound in a side-by-side assay with a control, the effect of the test compound on polymerase activity can be assessed.
(§2) DNA pol III activity was assayed as described in Barnes et al., Nucl.
(§3) Purified pol IIIC or pol IIIE was added to a buffered solution containing Mg^2+, DTT, glycerol, nicked calf thymus DNA, saturating concentrations of dATP, dCTP, dTTP and [^3H]-dTTP. Reaction mixtures were incubated at 30° C. for 10 min, quenched and filtered, and radioactivity in the acid-insoluble material measured by scintillation counting. Experiments were done in triplicate. Inhibitors were assayed by addition of several dilutions of a stock solution of inhibitor (DMSO or water, depending on solubility) before enzyme addition. […] The truncated assay, i.e., exclusion of the competitive substrate dGTP allows for the direct determination of apparent inhibitor constants (Ki) in this assay system.

B.s. pol IIIE = B.s. pol IIIE (Bacillus subtilis, UniProt O34623); assay: biochemical; format: biochemical
Method: as §1, §2, §3

E.c. pol IIIE = E.c. pol IIIE (Escherichia coli, UniProt P10443); assay: biochemical
Method: as §1, §2, §3

Bacillus subtilis = assay: Inhibition of bacterial growth (agar plate MIC), B.s.; format: cell-based; settings: agar plates, 37° C., 24 hours; for MIC: Bacillus subtilis
Method: (§4) Antimicrobial efficacy may be determined by standard methods of microbial culture in growth medium or on plates of agar supplemented with appropriate growth media. For example, microbes, e.g., mycoplasmata or Gram-positive or Gram-negative bacteria, are grown in the presence of serial dilutions of compounds in an appropriate vehicle, and, after a suitable period of growth, the microbial density is measured by visual or instrumental means. The concentration of compound at which no growth occurs is the minimum inhibitory concentration (MIC) of the compound. Test compounds with an appropriate level of growth inhibition are good candidate therapeutics for further evaluation.
(§5) Each compound was assayed against a panel of Gram-positive Bacilli, Enterococci, and Staphylococci, and Gram-negative Escherichia coli, grown in appropriate plate media solidified with 1.3% agar-agar. […] One tenth mL of diluted bacteria containing 500-1000 colony-forming units (CFU) were plated and spread, and the plates were incubated at 37° C. for 24 hours. MIC (minimum inhibitory concentration) was equivalent to the lowest concentration at which growth, i.e. colony formation, was not observed.

Staphylococcus aureus = assay: Inhibition of bacterial growth (agar plate MIC), S.a.; format: cell-based; settings: agar plates, 37° C., 24 hours; for MIC: Staphylococcus aureus
Method: as §4, §5

S.a. (Smith) = assay: Inhibition of bacterial growth (agar plate MIC), S.a. (Smith); format: cell-based, Staphylococcus aureus; settings: agar plates, 37° C., 24 hours; for MIC: Staphylococcus aureus
Method: as §4, §5

MRSA (B42876) = assay: Inhibition of bacterial growth (agar plate MIC), MRSA (B42876); format: cell-based, methicillin-resistant S.a.; settings: agar plates, 37° C., 24 hours; for MIC: Staphylococcus aureus, MRSA
Method: as §4, §5

Enterococcus fecalis = assay: Inhibition of bacterial growth (agar plate MIC), E. fecalis; format: cell-based; settings: agar plates, 37° C., 24 hours; for MIC: Enterococcus
Method: as §4, §5

Enterococcus fecium = assay: Inhibition of bacterial growth (agar plate MIC), E. fecium; format: cell-based; settings: agar plates, 37° C., 24 hours; for MIC: Enterococcus
Method: as §4, §5

[1] = system: vancomycin-resistant E. fecium; assay: Inhibition of bacterial growth (agar plate MIC), VRE; format: cell-based, Enterococcus fecium; settings: agar plates, 37° C., 24 hours; for MIC: Enterococcus, VRE
Method: as §4, §5

in vitro = in vitro ADME; settings: human, Caco-2
Description: Table 2 summarizes the results of cell membrane permeability assays of representative compounds of the invention. The assay utilizes CaCo2 cell culture monolayers, described by Artursson and Kalsson, Biochem. Biophys. Res.

[2] = truncated assay without dGTP, apparent Ki, read-out: Ki, B.s. pol IIIC
[3] = truncated assay without dGTP, apparent Ki

Sequence of B.s. pol IIIE (O34623 whole entry): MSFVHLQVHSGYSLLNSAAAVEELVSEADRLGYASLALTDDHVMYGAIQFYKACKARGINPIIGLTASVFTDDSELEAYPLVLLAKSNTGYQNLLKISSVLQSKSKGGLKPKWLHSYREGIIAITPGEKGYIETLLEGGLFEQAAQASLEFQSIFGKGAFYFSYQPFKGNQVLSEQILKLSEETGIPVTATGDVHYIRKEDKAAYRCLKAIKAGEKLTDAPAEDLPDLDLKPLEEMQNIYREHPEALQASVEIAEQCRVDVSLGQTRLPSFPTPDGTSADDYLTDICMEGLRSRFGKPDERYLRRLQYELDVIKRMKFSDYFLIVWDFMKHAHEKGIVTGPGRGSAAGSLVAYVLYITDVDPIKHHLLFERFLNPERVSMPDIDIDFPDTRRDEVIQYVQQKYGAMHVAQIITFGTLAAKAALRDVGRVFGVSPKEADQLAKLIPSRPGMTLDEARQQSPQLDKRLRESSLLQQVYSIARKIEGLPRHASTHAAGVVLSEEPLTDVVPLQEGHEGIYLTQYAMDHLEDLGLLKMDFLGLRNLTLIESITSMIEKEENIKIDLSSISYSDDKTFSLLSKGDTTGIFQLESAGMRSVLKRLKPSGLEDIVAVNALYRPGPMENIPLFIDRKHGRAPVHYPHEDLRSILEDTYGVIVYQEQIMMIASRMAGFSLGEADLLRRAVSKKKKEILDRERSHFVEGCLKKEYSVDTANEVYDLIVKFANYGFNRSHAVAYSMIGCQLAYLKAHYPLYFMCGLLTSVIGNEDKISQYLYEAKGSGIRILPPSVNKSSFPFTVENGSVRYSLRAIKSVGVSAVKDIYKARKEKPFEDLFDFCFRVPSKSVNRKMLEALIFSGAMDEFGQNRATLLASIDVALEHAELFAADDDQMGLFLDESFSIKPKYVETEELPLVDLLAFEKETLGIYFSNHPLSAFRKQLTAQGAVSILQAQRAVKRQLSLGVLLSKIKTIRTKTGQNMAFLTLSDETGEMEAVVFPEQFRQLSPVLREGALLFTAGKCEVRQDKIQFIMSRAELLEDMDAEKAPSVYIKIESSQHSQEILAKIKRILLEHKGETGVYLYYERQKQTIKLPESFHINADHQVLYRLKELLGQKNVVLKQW
Sequence of B.s. pol IIIC (P13267 whole entry): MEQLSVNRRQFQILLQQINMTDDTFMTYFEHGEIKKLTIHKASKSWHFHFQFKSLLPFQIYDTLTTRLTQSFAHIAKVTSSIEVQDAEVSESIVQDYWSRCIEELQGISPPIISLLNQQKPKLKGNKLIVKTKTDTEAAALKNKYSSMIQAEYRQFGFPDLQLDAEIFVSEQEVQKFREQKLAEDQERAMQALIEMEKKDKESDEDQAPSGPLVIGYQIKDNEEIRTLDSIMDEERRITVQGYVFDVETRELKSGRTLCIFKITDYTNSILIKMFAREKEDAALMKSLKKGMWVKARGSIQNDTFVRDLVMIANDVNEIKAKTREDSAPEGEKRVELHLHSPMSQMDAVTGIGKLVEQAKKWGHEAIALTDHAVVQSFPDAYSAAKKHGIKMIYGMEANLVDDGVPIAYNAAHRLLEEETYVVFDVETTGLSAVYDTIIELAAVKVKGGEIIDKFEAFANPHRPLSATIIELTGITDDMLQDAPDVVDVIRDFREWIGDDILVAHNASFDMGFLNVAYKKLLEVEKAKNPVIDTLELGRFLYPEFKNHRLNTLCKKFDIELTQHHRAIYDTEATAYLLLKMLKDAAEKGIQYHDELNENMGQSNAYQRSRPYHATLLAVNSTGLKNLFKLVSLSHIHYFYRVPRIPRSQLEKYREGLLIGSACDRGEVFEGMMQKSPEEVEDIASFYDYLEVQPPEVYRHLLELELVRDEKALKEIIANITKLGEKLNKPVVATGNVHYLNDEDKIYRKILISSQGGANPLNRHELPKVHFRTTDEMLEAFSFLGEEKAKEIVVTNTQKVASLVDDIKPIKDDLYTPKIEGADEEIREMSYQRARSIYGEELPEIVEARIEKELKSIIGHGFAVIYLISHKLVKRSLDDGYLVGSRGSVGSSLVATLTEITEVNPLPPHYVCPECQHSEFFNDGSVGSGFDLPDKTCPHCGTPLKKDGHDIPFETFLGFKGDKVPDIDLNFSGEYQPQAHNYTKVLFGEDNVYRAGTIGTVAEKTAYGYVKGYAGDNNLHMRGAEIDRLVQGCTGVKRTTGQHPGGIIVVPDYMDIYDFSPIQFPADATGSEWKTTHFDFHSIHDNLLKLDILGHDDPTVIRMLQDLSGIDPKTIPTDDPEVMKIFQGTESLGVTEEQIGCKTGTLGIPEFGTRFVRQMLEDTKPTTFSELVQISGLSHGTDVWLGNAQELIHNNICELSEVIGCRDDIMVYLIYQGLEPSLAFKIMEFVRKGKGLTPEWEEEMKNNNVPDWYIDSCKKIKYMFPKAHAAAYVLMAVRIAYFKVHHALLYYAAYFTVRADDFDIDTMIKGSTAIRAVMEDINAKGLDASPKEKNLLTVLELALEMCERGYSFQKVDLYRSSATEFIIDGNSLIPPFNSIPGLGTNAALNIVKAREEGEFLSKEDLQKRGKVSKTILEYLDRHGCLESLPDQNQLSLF
Sequence of E.c. pol IIIE (P10443 whole entry): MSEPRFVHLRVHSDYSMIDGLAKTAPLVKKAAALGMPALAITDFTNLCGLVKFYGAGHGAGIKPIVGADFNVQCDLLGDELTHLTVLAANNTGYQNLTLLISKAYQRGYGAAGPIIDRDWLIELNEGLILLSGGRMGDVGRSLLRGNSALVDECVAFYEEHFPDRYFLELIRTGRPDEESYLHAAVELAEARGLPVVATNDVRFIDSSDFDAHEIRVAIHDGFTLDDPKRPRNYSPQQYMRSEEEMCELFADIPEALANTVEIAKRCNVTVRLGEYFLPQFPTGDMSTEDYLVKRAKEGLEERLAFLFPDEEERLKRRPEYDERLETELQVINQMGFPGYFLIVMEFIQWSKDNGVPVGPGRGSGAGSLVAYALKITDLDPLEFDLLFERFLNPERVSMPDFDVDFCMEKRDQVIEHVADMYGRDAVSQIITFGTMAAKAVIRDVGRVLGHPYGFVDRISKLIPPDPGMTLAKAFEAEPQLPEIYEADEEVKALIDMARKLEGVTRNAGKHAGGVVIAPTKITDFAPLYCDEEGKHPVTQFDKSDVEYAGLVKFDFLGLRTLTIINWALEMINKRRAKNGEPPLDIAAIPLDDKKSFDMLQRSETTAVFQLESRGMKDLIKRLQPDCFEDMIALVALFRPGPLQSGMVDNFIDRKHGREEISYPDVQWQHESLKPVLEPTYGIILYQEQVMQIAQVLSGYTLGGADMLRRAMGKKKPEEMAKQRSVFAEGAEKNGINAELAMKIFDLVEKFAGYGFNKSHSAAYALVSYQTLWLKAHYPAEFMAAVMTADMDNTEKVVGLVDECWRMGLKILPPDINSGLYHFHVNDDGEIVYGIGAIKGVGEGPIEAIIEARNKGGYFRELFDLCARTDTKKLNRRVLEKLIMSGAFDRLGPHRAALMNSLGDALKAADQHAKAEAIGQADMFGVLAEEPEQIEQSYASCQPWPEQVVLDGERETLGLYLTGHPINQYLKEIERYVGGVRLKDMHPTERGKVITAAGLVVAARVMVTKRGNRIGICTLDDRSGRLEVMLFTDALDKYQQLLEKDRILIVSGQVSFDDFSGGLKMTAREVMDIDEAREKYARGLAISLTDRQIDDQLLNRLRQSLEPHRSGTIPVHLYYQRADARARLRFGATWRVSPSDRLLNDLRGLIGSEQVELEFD

## O=c1[nH]c(NCc2ccc(Cl)c(Cl)c2)cc2[nH]cnc12 [Compound 1, 2-(3,4-Dichlorobenzylamino)-6-oxo-3-deazapurine]
B.s. pol IIIC; [2]
  Ki: 2200 nM
B.s. pol IIIE; truncated assay without dGTP, apparent Ki, read-out: Ki, B.s. pol IIIE
  Ki: 2500 nM
E.c. pol IIIE; truncated assay without dGTP, apparent Ki, read-out: Ki, E.c. pol IIIE
  Ki: 176 µM
Bacillus subtilis
  MIC, B.s.: 40 µg/mL (≈ 129 µM)
Staphylococcus aureus
  MIC, S.a.: 80 µg/mL (≈ 259 µM)
S.a. (Smith)
  MIC, S.a. (Smith): 80 µg/mL (≈ 259 µM)
MRSA (B42876)
  MIC, MRSA (B42876): 80 µg/mL (≈ 259 µM)
Enterococcus fecalis
  MIC, E. fecalis: 80 µg/mL (≈ 259 µM)
Enterococcus fecium
  MIC, E. fecium: 40 µg/mL (≈ 129 µM)
[1]
  MIC, VRE: 40 µg/mL (≈ 129 µM)

## COCCCCn1cnc2cc(NCc3ccc(Cl)c(Cl)c3)[nH]c(=O)c21 [Compound 2, 2-(3,4-Dichlorobenzylamino)-6-oxo-7-(4-methoxybutyl)-3-deazapurine]
B.s. pol IIIC
  Ki: 190 nM
B.s. pol IIIE
  Ki: 370 nM
E.c. pol IIIE
  Ki: 56 µM
Bacillus subtilis
  MIC: 0.625 µg/mL (≈ 1.58 µM)
S.a. (Smith)
  MIC: 3.75 µg/mL (≈ 9.49 µM)
Enterococcus fecalis
  MIC: 5 µg/mL (≈ 12.6 µM)
Enterococcus fecium
  MIC: 5 µg/mL (≈ 12.6 µM)

## COCCCCCn1cnc2cc(NCc3ccc(Cl)c(Cl)c3)[nH]c(=O)c21 [Compound 3, 2-(3,4-Dichlorobenzylamino)-6-oxo-7-(5-methoxypentyl)-3-deazapurine]
B.s. pol IIIC
  Ki: 160 nM
B.s. pol IIIE
  Ki: 420 nM
E.c. pol IIIE
  Ki: 81 µM
MRSA (B42876)
  MIC: 2.5 µg/mL (≈ 6.11 µM)
Enterococcus fecalis
  MIC: 5 µg/mL (≈ 12.2 µM)
Enterococcus fecium
  MIC: 1.25 µg/mL (≈ 3.05 µM)
In vitro
  Papp: 13.8 ×10⁻⁶ cm/s

## COCCCCn1c(C)nc2cc(NCc3ccc(Cl)c(Cl)c3)[nH]c(=O)c21 [Compound 6, 2-(3,4-Dichlorobenzylamino)-6-oxo-7-(4-methoxybutyl)-8-methyl-3-deazapurine]
B.s. pol IIIC
  Ki: 1250 nM
B.s. pol IIIE
  Ki: 2500 nM
E.c. pol IIIE
  Ki: 426 µM
Bacillus subtilis
  MIC: 2.5 µg/mL (≈ 6.11 µM)
Staphylococcus aureus
  MIC: 10 µg/mL (≈ 24.4 µM)
S.a. (Smith)
  MIC: 7.5 µg/mL (≈ 18.3 µM)
MRSA (B42876)
  MIC: 7.5 µg/mL (≈ 18.3 µM)
Enterococcus fecalis
  MIC: 10 µg/mL (≈ 24.4 µM)
Enterococcus fecium
  MIC: 10 µg/mL (≈ 24.4 µM)
[1]
  MIC: 10 µg/mL (≈ 24.4 µM)

## O=c1[nH]c(NCc2ccc(Cl)c(Cl)c2)nc2ncn(CCCCN3CCOCC3)c12 [Compound 10, 7-[4-(N-Morpholinyl)butyl]-2-(3,4-dichlorobenzylamino)-6-oxopurine]
B.s. pol IIIC; [2]
  Ki: 51 nM
Staphylococcus aureus
  MIC: 20 µg/mL (≈ 44.3 µM)
Enterococcus fecalis
  MIC: 10 µg/mL (≈ 22.2 µM)
Enterococcus fecium
  MIC: 10 µg/mL (≈ 22.2 µM)
In vitro
  Papp: 0.01 ×10⁻⁶ cm/s

## O=c1[nH]c(NCc2ccc(Cl)c(Cl)c2)nc2ncn(CCCCCI)c12 [Compound 13, 7-(5-Iodopentyl)-2-(3,4-dichlorobenzylamino)-6-oxopurine]
B.s. pol IIIC
  Ki: 70 nM
B.s. pol IIIE
  Ki: 88 nM
E.c. pol IIIE
  Ki: 47 µM
Bacillus subtilis
  MIC: 1.4 µg/mL (≈ 2.77 µM)
Staphylococcus aureus
  MIC: 3.7 µg/mL (≈ 7.31 µM)
S.a. (Smith)
  MIC: 3.7 µg/mL (≈ 7.31 µM)
MRSA (B42876)
  MIC: 1.25 µg/mL (≈ 2.47 µM)
Enterococcus fecalis
  MIC: 2.5 µg/mL (≈ 4.94 µM)
Enterococcus fecium
  MIC: 2.5 µg/mL (≈ 4.94 µM)
[1]
  MIC: 2.5 µg/mL (≈ 4.94 µM)

## CCc1cc(Nc2cc3ncn(CCCCN4CCOCC4)c3c(=O)[nH]2)ccc1C [Compound 16, 2-(3-Ethyl-4-methylphenylamino)-6-oxo-7-(4-morpholinylbutyl)-3-deazapurine]
B.s. pol IIIC; [2]
  Ki: 1100 nM
B.s. pol IIIE; [3]
  Ki, B.s. pol IIIE: inact
E.c. pol IIIE; [3]
  Ki, E.c. pol IIIE: inact
Bacillus subtilis
  MIC, B.s.: 10 µg/mL (≈ 24.4 µM)
Staphylococcus aureus
  MIC, S.a.: 40 µg/mL (≈ 97.7 µM)
S.a. (Smith)
  MIC, S.a. (Smith): 40 µg/mL (≈ 97.7 µM)
MRSA (B42876)
  MIC, MRSA (B42876): 30 µg/mL (≈ 73.3 µM)
Enterococcus fecalis
  MIC, E. fecalis: >80 µg/mL
Enterococcus fecium
  MIC, E. fecium: 20 µg/mL (≈ 48.8 µM)
[1]
  MIC, VRE: >80 µg/mL

## CCc1cc(Nc2cc3ncn(CCCCCOC)c3c(=O)[nH]2)ccc1C [Compound 17, 2-(3-Ethyl-4-methylphenylamino)-6-oxo-7-(5-methoxypentyl)-3-deazapurine]
B.s. pol IIIC
  Ki: 690 nM
B.s. pol IIIE
  Ki: 490000 nM
E.c. pol IIIE; [3]
  Ki, E.c. pol IIIE: inact
Bacillus subtilis
  MIC: 1.25 µg/mL (≈ 3.39 µM)
MRSA (B42876)
  MIC: 2.5 µg/mL (≈ 6.78 µM)
Enterococcus fecalis
  MIC: > 80 µg/mL
Enterococcus fecium
  MIC: 2.5 µg/mL (≈ 6.78 µM)
In vitro
  Papp: 39.6 ×10⁻⁶ cm/s

## CCc1cc(Nc2nc3ncn(CCCCO)c3c(=O)[nH]2)ccc1C [Compound 18, 7-(4-Hydroxybutyl)-2-(3-ethyl-4-methylphenylamino)-6-oxopurine]
B.s. pol IIIC; [2]
  Ki: 470 nM
B.s. pol IIIE; [3]
  Ki, B.s. pol IIIE: inact
Bacillus subtilis
  MIC: 15 µg/mL (≈ 43.9 µM)
S.a. (Smith)
  MIC: 40 µg/mL (≈ 117 µM)
MRSA (B42876)
  MIC: 30 µg/mL (≈ 87.9 µM)
Enterococcus fecalis
  MIC: 20 µg/mL (≈ 58.6 µM)
Enterococcus fecium
  MIC: 20 µg/mL (≈ 58.6 µM)
In vitro
  Papp: 0.56 ×10⁻⁶ cm/s

## CCc1cc(Nc2nc3ncn(CCCCCO)c3c(=O)[nH]2)ccc1C [Compound 20, 7-(5-Hydroxypentyl)-2-(3-ethyl-4-methylphenylamino)-6-oxopurine]
B.s. pol IIIC; [2]
  Ki: 280 nM
MRSA (B42876)
  MIC: 20 µg/mL (≈ 56.3 µM)
Enterococcus fecalis
  MIC: 10 µg/mL (≈ 28.1 µM)
Enterococcus fecium
  MIC: 10 µg/mL (≈ 28.1 µM)
In vitro
  Papp: 0.62 ×10⁻⁶ cm/s
